Experimental data as given in PubChem BioAssay (NCI).
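In this assay, cells in 96-well plates receive the compound at five concentrations for 48 hours. Endpoints are linearly interpolated between the surrounding concentrations. The concentration for full growth arrest is given as TGI.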

What was measured:
Test in all cases: NCI tumour cell line growth inhibition, 48 h
UACC-257 melanoma = tested on: UACC-257 melanoma
U251 CNS = tested on: U251 CNS
RXF 393 renal = tested on: RXF 393 renal
MALME-3M melanoma = tested on: MALME-3M melanoma
SW-620 colon = tested on: SW-620 colon
COLO 205 colon = tested on: COLO 205 colon
SK-MEL-28 melanoma = tested on: SK-MEL-28 melanoma
DLD-1 colon = tested on: DLD-1 colon
OVCAR-5 ovarian = tested on: OVCAR-5 ovarian
K-562 leukemia = tested on: K-562 leukemia
NCI-H460 lung = tested on: NCI-H460 lung
OVCAR-3 ovarian = tested on: OVCAR-3 ovarian
A498 renal = tested on: A498 renal
SNB-78 CNS = tested on: SNB-78 CNS
UACC-62 melanoma = tested on: UACC-62 melanoma
KM12 colon = tested on: KM12 colon
SN12C renal = tested on: SN12C renal
EKVX NSCLC = tested on: EKVX NSCLC
MOLT-4 leukemia = tested on: MOLT-4 leukemia
HCC-2998 colon = tested on: HCC-2998 colon
OVCAR-8 ovarian = tested on: OVCAR-8 ovarian
SK-MEL-2 melanoma = tested on: SK-MEL-2 melanoma
HCT-15 colon = tested on: HCT-15 colon
NCI-H23 lung = tested on: NCI-H23 lung
MCF7 breast = tested on: MCF7 breast
NCI-H226 lung = tested on: NCI-H226 lung
KM20L2 colon = tested on: KM20L2 colon
CAKI-1 renal = tested on: CAKI-1 renal
HT29 colon = tested on: HT29 colon
LOX IMVI melanoma = tested on: LOX IMVI melanoma
CCRF-CEM leukemia = tested on: CCRF-CEM leukemia
IGROV1 ovarian = tested on: IGROV1 ovarian
HCT-116 colon = tested on: HCT-116 colon
HOP-92 NSCLC = tested on: HOP-92 NSCLC
NCI/ADR-RES ovarian = tested on: NCI/ADR-RES ovarian
DMS 273 small cell lung = tested on: DMS 273 small cell lung
OVCAR-4 ovarian = tested on: OVCAR-4 ovarian
HOP-62 NSCLC = tested on: HOP-62 NSCLC
SK-MEL-5 melanoma = tested on: SK-MEL-5 melanoma
NCI-H522 lung = tested on: NCI-H522 lung
A549 NSCLC = tested on: A549 NSCLC
SF-268 CNS = tested on: SF-268 CNS
UO-31 renal = tested on: UO-31 renal
SNB-75 CNS = tested on: SNB-75 CNS
M19-MEL melanoma = tested on: M19-MEL melanoma
XF 498 CNS = tested on: XF 498 CNS
SF-295 CNS = tested on: SF-295 CNS
HL-60(TB) leukemia = tested on: HL-60(TB) leukemia
DMS 114 small cell lung = tested on: DMS 114 small cell lung
RPMI-8226 leukemia = tested on: RPMI-8226 leukemia
SK-OV-3 ovarian = tested on: SK-OV-3 ovarian
SN12K1 renal = tested on: SN12K1 renal
SNB-19 CNS = tested on: SNB-19 CNS
P388 leukemia = tested on: P388 leukemia
P388/ADR leukemia = tested on: P388/ADR leukemia
SF-539 CNS = tested on: SF-539 CNS
T-47D breast = tested on: T-47D breast
MDA-MB-435 = tested on: MDA-MB-435
PC-3 prostate = tested on: PC-3 prostate
DU-145 prostate = tested on: DU-145 prostate
786-0 renal = tested on: 786-0 renal
MDA-N = tested on: MDA-N
TK-10 renal = tested on: TK-10 renal
LXFL 529 NSCLC = tested on: LXFL 529 NSCLC
HS 578T breast = tested on: HS 578T breast
BT-549 breast = tested on: BT-549 breast
MDA-MB-231 breast = tested on: MDA-MB-231 breast
ACHN renal = tested on: ACHN renal
HOP-18 NSCLC = tested on: HOP-18 NSCLC
SR leukemia = tested on: SR leukemia
M14 melanoma = tested on: M14 melanoma
RXF-631 renal = tested on: RXF-631 renal

In the case of CSCSCC(CO)NC(=O)/C(C)=C\c1c(C)[nH]c(=O)[nH]c1=O (stereo not given), the TGI (UACC-257 melanoma) is reported as greater than 158 µM, the TGI (U251 CNS) is reported as greater than 250 µM and the TGI (RXF 393 renal) is reported as greater than 250 µM. It also gave a TGI (MALME-3M melanoma) greater than 250 µM, a TGI (SW-620 colon) greater than 250 µM and a TGI (COLO 205 colon) greater than 250 µM. For the same molecule, the TGI (SK-MEL-28 melanoma) was greater than 250 µM, the TGI (DLD-1 colon) was greater than 250 µM and the TGI (OVCAR-5 ovarian) was greater than 250 µM. It also gave a TGI (K-562 leukemia) greater than 250 µM, a TGI (NCI-H460 lung) greater than 250 µM and a TGI (OVCAR-3 ovarian) greater than 250 µM. The TGI (A498 renal) was greater than 250 µM, the TGI (SNB-78 CNS) was greater than 250 µM and the TGI (UACC-62 melanoma) was greater than 250 µM. The TGI (KM12 colon) was greater than 250 µM, the TGI (SN12C renal) was greater than 250 µM and the TGI (EKVX NSCLC) was greater than 250 µM. The TGI (MOLT-4 leukemia) was greater than 250 µM, the TGI (HCC-2998 colon) was greater than 250 µM and the TGI (OVCAR-8 ovarian) was greater than 250 µM. The TGI (SK-MEL-2 melanoma) was greater than 250 µM, the TGI (HCT-15 colon) was greater than 250 µM and the TGI (NCI-H23 lung) was greater than 250 µM. For the same molecule, the TGI (MCF7 breast) was greater than 250 µM, the TGI (NCI-H226 lung) was greater than 250 µM and the TGI (KM20L2 colon) was greater than 250 µM. For the same molecule, the TGI (CAKI-1 renal) was greater than 250 µM, the TGI (HT29 colon) was greater than 250 µM and the TGI (LOX IMVI melanoma) was greater than 250 µM. It also gave a TGI (CCRF-CEM leukemia) greater than 250 µM, a TGI (IGROV1 ovarian) greater than 250 µM and a TGI (HCT-116 colon) greater than 250 µM. For the same molecule, the TGI (HOP-92 NSCLC) was 23.9 µM, the TGI (NCI/ADR-RES ovarian) was greater than 250 µM and the TGI (DMS 273 small cell lung) was greater than 250 µM. It also gave a TGI (OVCAR-4 ovarian) greater than 250 µM, a TGI (HOP-62 NSCLC) greater than 250 µM and a TGI (SK-MEL-5 melanoma) greater than 250 µM. It also gave a TGI (NCI-H522 lung) greater than 250 µM, a TGI (A549 NSCLC) greater than 250 µM and a TGI (SF-268 CNS) greater than 250 µM. It also gave a TGI (UO-31 renal) greater than 250 µM, a TGI (SNB-75 CNS) greater than 250 µM and a TGI (M19-MEL melanoma) greater than 250 µM. The TGI (XF 498 CNS) was greater than 224 µM, the TGI (SF-295 CNS) was greater than 250 µM and the TGI (HL-60(TB) leukemia) was greater than 250 µM. For the same molecule, the TGI (DMS 114 small cell lung) was greater than 250 µM, the TGI (RPMI-8226 leukemia) was greater than 250 µM and the TGI (SK-OV-3 ovarian) was greater than 250 µM. For the same molecule, the TGI (SN12K1 renal) was greater than 250 µM, the TGI (SNB-19 CNS) was greater than 250 µM and the TGI (P388 leukemia) was greater than 250 µM. The TGI (P388/ADR leukemia) was greater than 250 µM and the TGI (SF-539 CNS) was greater than 250 µM.
O=C(CCN1CCCCC1)N1CCc2c([nH]c3ccccc23)C1c1cccnc1 (stereo not given) was tested, and the TGI (UACC-257 melanoma) was 34.7 µM, the TGI (U251 CNS) was greater than 100 µM and the TGI (RXF 393 renal) was 81.5 µM. For the same molecule, the TGI (MALME-3M melanoma) was 41.6 µM, the TGI (SW-620 colon) was greater than 100 µM and the TGI (COLO 205 colon) was 44.8 µM. It also gave a TGI (SK-MEL-28 melanoma) of 37.2 µM, a TGI (DLD-1 colon) greater than 100 µM and a TGI (T-47D breast) greater than 100 µM. For the same molecule, the TGI (OVCAR-5 ovarian) was greater than 92.9 µM, the TGI (K-562 leukemia) was 75.1 µM and the TGI (NCI-H460 lung) was greater than 100 µM. It also gave a TGI (OVCAR-3 ovarian) greater than 100 µM, a TGI (A498 renal) greater than 100 µM and a TGI (SNB-78 CNS) greater than 100 µM. The TGI (UACC-62 melanoma) was 42.2 µM, the TGI (KM12 colon) was greater than 100 µM and the TGI (SN12C renal) was greater than 100 µM. It also gave a TGI (EKVX NSCLC) of 98.2 µM, a TGI (MOLT-4 leukemia) greater than 100 µM and a TGI (HCC-2998 colon) of 54.8 µM. It also gave a TGI (MDA-MB-435) of 75.1 µM, a TGI (PC-3 prostate) greater than 100 µM and a TGI (OVCAR-8 ovarian) greater than 100 µM. It also gave a TGI (SK-MEL-2 melanoma) of 36.9 µM, a TGI (HCT-15 colon) greater than 100 µM and a TGI (NCI-H23 lung) greater than 100 µM. For the same molecule, the TGI (MCF7 breast) was greater than 100 µM, the TGI (NCI-H226 lung) was greater than 100 µM and the TGI (DU-145 prostate) was greater than 100 µM. It also gave a TGI (KM20L2 colon) greater than 70.8 µM, a TGI (CAKI-1 renal) greater than 100 µM and a TGI (HT29 colon) of 75.4 µM. For the same molecule, the TGI (LOX IMVI melanoma) was greater than 100 µM, the TGI (786-0 renal) was 82.9 µM and the TGI (MDA-N) was 75 µM. It also gave a TGI (TK-10 renal) greater than 100 µM, a TGI (CCRF-CEM leukemia) of 99 µM and a TGI (IGROV1 ovarian) greater than 100 µM. For the same molecule, the TGI (HCT-116 colon) was greater than 100 µM, the TGI (LXFL 529 NSCLC) was 38.1 µM and the TGI (HOP-92 NSCLC) was 66 µM. For the same molecule, the TGI (HS 578T breast) was greater than 100 µM, the TGI (NCI/ADR-RES ovarian) was greater than 100 µM and the TGI (BT-549 breast) was greater than 86.2 µM. For the same molecule, the TGI (DMS 273 small cell lung) was greater than 100 µM, the TGI (MDA-MB-231 breast) was greater than 74.2 µM and the TGI (ACHN renal) was greater than 100 µM. The TGI (OVCAR-4 ovarian) was greater than 100 µM, the TGI (HOP-62 NSCLC) was greater than 100 µM and the TGI (SK-MEL-5 melanoma) was 41.3 µM. For the same molecule, the TGI (NCI-H522 lung) was 79.7 µM, the TGI (A549 NSCLC) was greater than 100 µM and the TGI (SF-268 CNS) was greater than 87.9 µM. The TGI (HOP-18 NSCLC) was greater than 100 µM, the TGI (UO-31 renal) was 71.1 µM and the TGI (SR leukemia) was greater than 100 µM. For the same molecule, the TGI (SNB-75 CNS) was greater than 92.1 µM, the TGI (M14 melanoma) was 42.2 µM and the TGI (M19-MEL melanoma) was 46.1 µM. For the same molecule, the TGI (XF 498 CNS) was 57.3 µM, the TGI (SF-295 CNS) was greater than 100 µM and the TGI (HL-60(TB) leukemia) was greater than 93.2 µM. For the same molecule, the TGI (DMS 114 small cell lung) was greater than 69.7 µM, the TGI (RPMI-8226 leukemia) was greater than 100 µM and the TGI (SK-OV-3 ovarian) was greater than 100 µM. The TGI (RXF-631 renal) was greater than 80.7 µM, the TGI (SNB-19 CNS) was greater than 100 µM and the TGI (SF-539 CNS) was greater than 85.7 µM.
